# From US7311918B2, “Rotavirus subunit vaccine” (Children's Hospital Medical Center, priority 1998, dated 2007)
# Values joined by “and” are separate entries in the source; they are usually repeats but may differ in a detail not shown here. Identical values can stand only once. “Also recorded” adds a separate entry of the source.
# System: EDIM virus (murine rotavirus)
# Assay type: in vivo, BALB/c mice
# Settings: BALB/c mice, MBP::VP6 given intranasally with the adjuvant named
row,Substance,Reduction in shedding
1,QS-21 [reference compound],43%

# Same assay, conditions: BALB/c mice, MBP::VP6 given orally with the adjuvant named
row,Substance,Reduction in shedding
1,QS-21 [reference compound],59%

# Same assay, conditions: mouse, in vivo
Substance,% Reduction in shedding,Mean reduction in rotavirus shedding (protection),Shedding per mouse per day,"Shedding, Day 7","Shedding, Day 6"
"Peptide 3: one of 11 overlapping synthetic peptides (18 to 31 amino acids) of the CD region of VP6, Table 10 (FSFPRVINSADGATTWYFNPVILRPNNVEV; Rotavirus VP6 fragment)",57%,57%,96,0,–
"Peptide 5: one of 11 overlapping synthetic peptides (18 to 31 amino acids) of the CD region of VP6, Table 10 (NGQVINTYQARFGTIVARNFDTIRLSFQLM; Rotavirus VP6 fragment)",0%,did not elicit protection,341,–,–
"4: one of 11 overlapping synthetic peptides (18 to 31 amino acids) of the CD region of VP6, Table 10 (FNPVILRPNNVEVEFLLNGQVINTYQARF; Rotavirus VP6 fragment) [Peptide 4]",–,77%,–,–,–
"2: one of 11 overlapping synthetic peptides (18 to 31 amino acids) of the CD region of VP6, Table 10 (PDAERFSFPRVINSADGA; Rotavirus VP6 fragment) [Peptide 2]",–,70%,–,–,–
"Peptide 10: one of 11 overlapping synthetic peptides (18 to 31 amino acids) of the CD region of VP6, Table 10 (QEYAIPVGPVFPPGMNWTDLITNYSPSRED; Rotavirus VP6 fragment)",0%,did not elicit protection,1825,0,–
"Peptide 11: one of 11 overlapping synthetic peptides (18 to 31 amino acids) of the CD region of VP6, Table 10 (TDLITNYSPSREDNLQRVFTVASIRSMLVK; Rotavirus VP6 fragment)",64%,64%,80,0,30 and 29 and 41 and 36 and 23
RLSFQLMRPPNMTP [Peptide 6-14],–,comparable protection to that of peptide 6; also recorded: nearly complete protection,–,–,–
"Peptide 9: one of 11 overlapping synthetic peptides (18 to 31 amino acids) of the CD region of VP6, Table 10 (VLADASETMLANVTSVRQEYAI; Rotavirus VP6 fragment)",0%,did not elicit protection,275,–,–
"Peptide 6: 25 mer synthetic peptide of the CD region of VP6 containing the 14-amino acid sequence RLSFQLMRPPNMTP, Table 10 (RNFDTIRLSFQLMRPPNMTPAVTAL; Rotavirus VP6 fragment)",88%,88%,27,0,–
"Peptide 7: one of 11 overlapping synthetic peptides (18 to 31 amino acids) of the CD region of VP6, Table 10 (MTPAVTALFPNAQPFEHHATVGLTLRIDSA; Rotavirus VP6 fragment)",18%,did not elicit protection,185,–,–

# System: rotavirus (EDIM viral lysate)
# Assay type: in vivo, BALB/c mice
# Settings: mice immunized with MBP::VP6; intramuscularly with QS-21 versus intranasally with LT
row,Substance,Serum IgG response
1,QS-21 [reference compound],greater IgG response
